From a melting point compilation (Tetko et al.; mined from patent text by program, amines drawn as free bases though some values may be those of a salt)

Compound	melting point
NC(=O)Nc1c(C(=O)c2ccccc2)[nH]c2cc(Cl)ccc12	196 to 200 °C
CCCc1c(O)c(O)c(C(=O)O)c2ccc(C)cc12	159 to 160 °C
CCOC(=O)c1ccc2c(SC(=O)N3CCSCC3)cccn2c1=O	146 to 148 °C
Cn1c2ccc(Cl)cc2c2c3ccccc3c(OCCN3CCOCC3)nc21	140 to 142 °C
Cc1nc2cc(Oc3cc(-c4ccc(C(C)(C)C)cc4)ncn3)ccc2s1	163 to 165 °C
CCCN(CCC)Cc1csc(-c2ncn3c2CN(C)C(=O)c2ccccc2-3)n1	111 to 112 °C
Cc1cc2c(c3ccc(=O)[nH]c13)OC(C(O)CN=[N+]=[N-])C2 (stereo unspecified)	173 to 175 °C
CCCCc1c(-c2ccncc2)[nH]c(-c2ccncc2)c1C(=O)OCC	256 to 258 °C
CC(C)(C)OC(=O)NCCc1ccnc(C#N)c1	70.5 to 71.2 °C
CCCCCS(=O)(=O)NC(=O)/C=C/c1ccc(OCCOC)cc1OCC1CCCCC1	97.5 to 98.3 °C
Cn1c(=O)c2[nH]c(C3(N)CCCC3)nc2n(C)c1=O	288 to 290 °C
O=C(Nc1cc(Cl)cc(Cl)c1)c1ccccc1SSc1ccccc1C(=O)Nc1cc(Cl)cc(Cl)c1	235 to 236 °C
NS(=O)(=O)c1ccc(C2=C(c3ccc(Cl)cc3)CCC2)cc1	177 to 178 °C
N#Cc1ccc(C(F)(F)F)cc1NN=Nc1ccccc1	139 to 141 °C
CNC(=O)/C=C/c1ccc(C(=O)NCC(=O)N(C)c2ccc(Cl)c(COc3cccc4ccc(C)nc34)c2Cl)cc1	143 to 150 °C
CCOC(=O)C(C)(C)n1c(=O)[nH]c2ccccc2c1=O	133 to 134 °C
COC(OC)c1cnc(N2C(=O)c3ccccc3C2=O)c(C#N)n1	115 to 116 °C
COCC#Cc1ncn2c1CN(C)C(=O)c1cc(F)ccc1-2	146 to 147 °C
O=C1c2ccccc2C(=O)N1COc1ccc([N+](=O)[O-])cc1	145 to 148 °C
O=C(Nc1cccc(Cl)c1)N[C@H]1C[C@H](C(=O)O)Nc2cc(Cl)cc(Cl)c21 (relative stereo)	173 to 175 °C
CCC(=O)c1c[nH]c2c(OC)cccc2c1=O	260 to 263 °C
COc1ccc2c(c1)c(Cc1nc(-c3cccc([N+](=O)[O-])c3)cs1)c(C)n2C(=O)c1ccc(Cl)cc1	162 to 164 °C
COC(=O)c1cc(OCCc2nc(-c3ccccc3)oc2C)no1	90 to 91 °C

Compound	melting point
CS(=O)(=O)Nc1ccc(OCCCCl)cc1	120 to 122 °C
Cn1c(COc2ccc(CC3SC(=O)NC3=O)cc2)nc2ccc(Oc3ccc(NC(=S)Nc4cccc5ccccc45)cc3)cc21 (stereo unspecified)	186 to 188 °C
CCOCCn1cc2c(C3C(=O)Nc4ccc(Br)cc43)nc(NCCN(C)C)nc2n1 (stereo unspecified)	247 to 251 °C
CCCCCCCCCCCCC(=O)NN	101 to 104 °C
CCCCc1ncc(/C=C(\Cc2ccc([N+](=O)[O-])cc2)C(=O)O)n1Cc1ccccc1Cl	207 to 208 °C
FC(F)(F)c1cccc2c1Sc1ccccc1NC2=S	265 to 267 °C
C=C1CC2C(CCC3(C)C2CCC3(OC)C(=O)COC(C)=O)C2(C)CCC(=O)C=C12 (stereo unspecified)	142 to 143 °C
COc1ccccc1-n1ccc(=N)cc1	121 to 124 °C
COC(=O)C1=C(C)NC(C)=C(C(=O)OCCCOc2ccc(CCCCO)cc2)C1c1cccc([N+](=O)[O-])c1 (stereo unspecified)	72 °C
CC(C)(C)C(=O)OC1CC(=O)C2(C)CCC3C(CCC4=CC(=O)CCC43C)C12 (stereo unspecified)	148 to 150 °C
ClCCCOc1ccc2ccccc2c1	46 to 49 °C
COc1ccccc1-c1ccc(Cl)c2c1S(=O)(=O)NC(C1CCCCC1)=N2	100 to 105 °C
COc1ccc(C(=O)CC2CCCCC2=O)cc1 (stereo unspecified)	98 to 99 °C
COC[C@H](C1CC1)n1cc(Cl)nc(Nc2cc(C)c(OC)nc2C)c1=O	99 to 100 °C
COc1cc2c(-c3ccnc(Cl)c3)c(CO)c(CO)cc2cc1OC1CCCC1	200 to 201 °C
CCCCCC/C=C/c1cccc(CCC(COC(C)=O)(COC(C)=O)NC(C)=O)c1	84 to 86 °C
CCCCCCCCCCCCc1ccc(S(=O)(=O)Nc2nnc(CC(=O)O)s2)cc1	194 to 195 °C
COC(=O)C=Cc1cc(-c2nn(C)c(C(F)(F)F)c2Cl)c(F)cc1Cl	117 °C
CCOC(=O)c1cc(NC(=O)C(N)Cc2ccc(Cl)c(Cl)c2)c[nH]1 (stereo unspecified)	134 to 136 °C
COc1ccc2c(C)c(C(=O)C34CC5CC(CC(C5)C3)C4)oc2c1	173 to 175 °C
O=S(=O)(c1ccccc1)c1cc(Cl)c2oc3c(c2c1)CC(O)CC3 (stereo unspecified)	236 to 240 °C
CN1C(=O)C(c2cccc(Br)c2)(c2c[nH]c(C=O)c2)N=C1N (stereo unspecified)	142 to 151 °C
OCC1CCN(CC(O)c2ccc(F)cc2)CC1 (stereo unspecified)	113 °C

Compound	melting point
N#Cc1cc(Oc2ccc(Cl)c(Cl)c2)cnc1Cl	76 to 78 °C
CCCCCCOc1ccc(C(=O)Nc2ccccc2Sc2ccccc2-c2nnn[nH]2)cc1	154 to 156 °C
CC(C)(C)OC(=O)NCCNC(=O)c1n[nH]cc1-c1ccccc1	71 °C
NC(=O)c1c(F)cc(-c2ccc3nnn(Cc4ccc5ncccc5c4)c3n2)cc1F	272 to 275 °C
CS(=O)(=O)c1ccc(-c2cnn(CC(F)(F)F)c(=O)c2Cc2ccccc2)cc1	112 to 114 °C
Nc1ccc(C2CCN(c3ccncc3)CC2)cc1	196 to 197 °C
CCNC(=O)Nc1cc(-c2c(-c3ccc(F)c(C)c3)nc3c(C)ccnn23)ccn1	240 to 241 °C
CCOC(=O)c1cc2cc(NC(C)C)ccc2nn1	167 to 168 °C
COC(=O)c1ccc(-c2nc(OC(C)=O)c(C)s2)cc1	124 to 125 °C
O=[N+]([O-])c1nccn1COC(CO)CO	88 °C
NS(=O)(=O)c1cc2c(Cl)c(O)ccc2s1	198 to 201 °C
CC(C)(C)c1ccc(CSc2ccc3c(c2)OCC(=O)N3)cc1	134 to 136 °C
CCCCCCCCCCCCCCOc1ccc(CN(C(=O)NC)c2cccc(CBr)c2)cc1	70 to 73 °C
CC(=O)NC(=N)NCC1CC2c3cccc4[nH]cc(c34)CC2N(C)C1 (stereo unspecified)	218 to 220 °C
C=CCN1C(=O)NC(C)CC1OCC (stereo unspecified)	72 to 76 °C
CN1C(=O)OC(C)(C)c2cc(-c3cccc(Br)c3)ccc21	142 to 143 °C
CCOC(=O)c1cnn(-c2c(Cl)cc(C(F)(F)F)cc2Cl)c1N	131 to 134 °C
CC(C)NN=C(N)Nc1c(Cl)cccc1Cl	227 to 228 °C
C#CCCCCCCCOc1cccc(C(N)=O)c1	82 to 83 °C
COc1ccccc1OC1CCN(c2nc(-c3ccccc3)nc3ccccc23)C1 (stereo unspecified)	142 to 144 °C
COc1ccc2c(c1)c(CC(=O)O)c(C)n2Cc1ccccc1OC	176 to 180 °C
CS(=O)(=O)c1ccccc1-c1cc(CCO)nn1C1CCCCC1	108 °C
CS(=O)(=O)c1ccc(-c2cnn(-c3ccc(F)c(Cl)c3)c(=O)c2Cc2cccc(F)c2)cc1	101 to 103 °C

Next, values leading:

melting point	Compound
126 to 128 °C	Clc1ccc(/C=C/C2=CCN(Cc3ccccc3)CC2)cn1
147 to 149 °C	CC(=O)[C@H]1CC[C@H]2[C@@H]3CCC4=C/C(=N/OC(=O)[C@@H](NC(=O)OC(C)(C)C)C(C)C)CC[C@]4(C)[C@H]3CC[C@]12C
86 °C	Cc1cc(-n2ccnc2)c2cccc(OCc3c(Cl)ccc(S(=O)(=O)N4CCC[C@H]4C(=O)NCC4CCN(C)CC4)c3Cl)c2n1
114 °C	CC(SC1COC(c2ccc3cc(C(=O)Nc4ccc(C#N)cc4)ccc3c2)OC1)C(O)(Cn1cncn1)c1ccc(F)cc1F (stereo unspecified)
191 °C	Cn1ncc2c(=O)n3c(nc21)SC(c1ccccc1)C3 (stereo unspecified)
46 to 47 °C	COc1nc(C2CC2)nc(OC(C)C)c1C=O
169 to 171 °C	CCNC(=O)Nc1ccc(C(O)(C(F)(F)F)C(F)(F)F)cc1[N+](=O)[O-]
39 to 41 °C	COc1c(Br)c(C)nc(C)c1-c1ccc(Oc2ccc(OC(F)(F)F)cc2)cc1
201 to 203 °C	COC(=O)NC1Cc2ccc([N+](=O)[O-])cc2C1O (stereo unspecified)
208 to 210 °C	COCCOc1ccc(-c2cncc(C#N)c2Nc2ccc3[nH]ccc3c2C)cc1OC
139 to 140 °C	Cc1cccc(C)c1NC(=O)CN1CCN(C=O)CC1
153 to 155 °C	Cn1cc(C2=C(c3c4n(c5ccccc35)CCC(NC(=O)OC(C)(C)C)C4)C(=O)NC2=O)c2ccccc21 (stereo unspecified)
217 to 222 °C	Cc1cc(O)n2nc(CBr)nc2n1
197 °C	Cn1nccc1OCc1c(S(C)(=O)=O)ccc(C(=O)O)c1Cl
63 to 65 °C	CNC(=S)n1nc(Oc2ncc(C(F)(F)F)cc2Cl)cc1C
107 to 108 °C	Nc1cnc2ccc(C(F)(F)F)cc2c1-c1ccccc1

melting point	Compound
128 °C	Cc1cccc2nnc(-c3ccccc3)c(Cl)c12
86.1 to 87.8 °C	CN(C#N)C(=O)CCCCC(=O)N(C)C#N
200 to 202 °C	CC(C)OC(=O)C=Cc1cc(N2C(=O)CC(C(F)(F)F)N(C)C2=O)ccc1Cl (stereo unspecified)
64 to 67 °C	COC(=O)C1=Cc2cccc(OCc3ccccc3)c2CC1
204 °C	Cc1cc(Cl)cc(C(=O)Nc2ccn(C)n2)n1
159 to 161 °C	CCOC(=O)c1c(C)nc(N(C)N)c([N+](=O)[O-])c1Cl
155 to 163 °C	CN1CCN(c2ccc([N+](=O)[O-])cc2)S1(=O)=O
253 to 255 °C	CCOc1cc(C(=O)NC2CC(C)(C)NC(C)(C)C2)ccc1-c1cc2cc(Cl)c(Cl)cc2[nH]1
70 to 73 °C	c1cncc(-c2cc(C3CC3)on2)c1
164 to 170 °C	COc1ccc(C=C2NC(C(=O)Cc3cc(OC)c(OC)c(OC)c3)=Cc3ccccc32)cc1OC
172 to 174 °C	CC[C@H](C)[C@H](NS(=O)(=O)c1cccc2ccccc12)C(=O)N[C@@H](Cc1c[nH]c2ccccc12)C(=O)OC
138 °C	CCNCC1Cc2cc(F)cc(-c3c(Cl)cccc3Cl)c2O1 (stereo unspecified)
141 to 143 °C	CCCCCCCSc1nn2c(=O)c(C)c(O)nc2s1
95 to 96 °C	CCCC(=O)C(=O)NCC(OCC)(OCC)c1ccncc1
68 to 70 °C	CC(C)(C)OC(=O)NC1CC=CC1
135 to 138 °C	CCCOC1(C)CN(C(=O)Nc2ccc(C(F)(F)F)cc2)N=C1c1ccc(Cl)cc1 (stereo unspecified)
